For this assay, the target named is T1, human ferroportin (Homo sapiens, UniProt Q9NP59).
T1 construct: luciferase reporter (read with the Nano-Glo Luciferase Assay System); expressed in transfected cells; host or cells: CHO cells, stably transfected, expression induced with doxycycline
T1 sequence (Q9NP59 1-571): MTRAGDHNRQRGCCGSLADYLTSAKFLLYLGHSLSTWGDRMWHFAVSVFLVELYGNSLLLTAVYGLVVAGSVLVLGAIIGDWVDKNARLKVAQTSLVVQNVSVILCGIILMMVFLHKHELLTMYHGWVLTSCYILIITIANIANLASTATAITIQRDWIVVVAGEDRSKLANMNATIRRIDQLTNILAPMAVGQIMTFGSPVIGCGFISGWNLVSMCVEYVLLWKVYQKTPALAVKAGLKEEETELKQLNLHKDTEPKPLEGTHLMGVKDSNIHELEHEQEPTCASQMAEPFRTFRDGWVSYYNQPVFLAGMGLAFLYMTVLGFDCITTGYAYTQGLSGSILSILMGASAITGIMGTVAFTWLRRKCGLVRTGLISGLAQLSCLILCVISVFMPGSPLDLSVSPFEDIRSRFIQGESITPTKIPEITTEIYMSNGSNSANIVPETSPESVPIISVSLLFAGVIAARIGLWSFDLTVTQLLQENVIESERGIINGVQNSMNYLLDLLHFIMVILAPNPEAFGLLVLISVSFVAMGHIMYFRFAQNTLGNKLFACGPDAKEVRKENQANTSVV
The experiment in a line: Biological in-vitro ferroportin internalization assay (luciferase reporter). It counts as cell-based. The following applies: average pEC50; stably-transfected CHO cell line expressing human ferroportin tagged to a luciferase reporter; 6 h incubation with test compound. In short, it runs like this:
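Read-out is Nano-Glo luciferase signal after 6 h compound exposure, with average pEC50 derived. Cells are a stable CHO line carrying luciferase-tagged human ferroportin, pre-loaded 24 h with ferric ammonium citrate and doxycycline-induced for 24 h.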
For orientation: Reporter assays use an easily measured gene product as a stand-in for the process of interest.
Turning to `CN(CC(=O)N1CCCC1)c1nc(-c2cc(OCC(C)(C)O)ccn2)nc2c1CCC2` [Compound 420, 2-({2-[4-(2-hydroxy-2-methylpropoxy)pyridin-2-yl]-5H,6H,7H-cyclopenta[d]pyrimidin-4-yl}(methyl)amino)-1-(pyrrolidin-1-yl)ethan-1-one], the pEC50 stood at 8.

Turning to `CN(CC(=O)NC1CCCC1)c1nc(-c2cc(OCC(C)(C)O)ccn2)nc2c1CCC2` [Compound 421, N-cyclopentyl-2-({2-[4-(2-hydroxy-2-methylpropoxy)pyridin-2-yl]-5H,6H,7H-cyclopenta[d]pyrimidin-4-yl}(methyl)amino)acetamide], the pEC50 is 8.2.

As to `CN(CC(=O)N[C@@H]1CCOC1)c1nc(-c2cc(OCC(C)(C)O)ccn2)nc2c1CCC2` [Compound 422, 2-({2-[4-(2-hydroxy-2-methylpropoxy)pyridin-2-yl]-5H,6H,7H-cyclopenta[d]pyrimidin-4-yl}(methyl)amino)-N-[(3R)-oxolan-3-yl]acetamide], the pEC50 was 7.4. `CN(CC(=O)NC1(C(F)(F)F)CC1)c1nc(-c2cc(OCC(C)(C)N(C)C)ccn2)nc2c1CCC2` [Compound 423, 2-[(2-{4-[2-(dimethylamino)-2-methylpropoxy]pyridin-2-yl}-5H,6H,7H-cyclopenta[d]pyrimidin-4-yl)(methyl)amino]-N-[1-(trifluoromethyl)cyclopropyl]acetamide] registered a pEC50 of 7.7.

In turn, `CN(C)CCOc1ccnc(-c2nc3c(c(N(C)CC(=O)N[C@@H]4CCOC4)n2)CCC3)c1` [Compound 424, 2-[(2-{4-[2-(dimethylamino)ethoxy]pyridin-2-yl}-5H,6H,7H-cyclopenta[d]pyrimidin-4-yl)(methyl)amino]-N-[(3R)-oxolan-3-yl]acetamide] yielded a pEC50 of 7. Regarding `CN(CC(=O)NC(C)(C)C)c1nc(-c2cc(OC(C)(C)CO)ccn2)nc2c1CCC2` [Compound 425, N-tert-butyl-2-[(2-{4-[(1-hydroxy-2-methylpropan-2-yl)oxy]pyridin-2-yl}-5H,6H,7H-cyclopenta[d]pyrimidin-4-yl)(methyl)amino]acetamide], the pEC50 is reported as 8.3. Under `CN(CC(=O)NC(C)(C)C)c1nc(-c2cc(OCC(O)C(F)(F)F)ccn2)nc2c1CCC2` (centres unmarked) [Compound 426, N-tert-butyl-2-[methyl({2-[4-(3,3,3-trifluoro-2-hydroxypropoxy)pyridin-2-yl]-5H,6H,7H-cyclopenta[d]pyrimidin-4-yl})amino]acetamide] stands 8.4. In turn, `Cc1cc(OCCO)cc(-c2nc3c(c(N(C)CC(=O)NC(C)(C)C)n2)CCC3)n1` [Compound 427, N-tert-butyl-2-({2-[4-(2-hydroxyethoxy)-6-methylpyridin-2-yl]-5H,6H,7H-cyclopenta[d]pyrimidin-4-yl}(methyl)amino)acetamide] returned a pEC50 of 7.6.

For the compound `CC(C)NC(=O)CN(C)c1nc(-c2cc(OCCN(C)C)ccn2)nc2c1CCC2` [Compound 428, 2-[(2-{4-[2-(dimethylamino)ethoxy]pyridin-2-yl}-5H,6H,7H-cyclopenta[d]pyrimidin-4-yl)(methyl)amino]-N-(propan-2-yl)acetamide], the pEC50 came to 7.5. Under `CC(C)NC(=O)CN(C)c1nc(-c2cc(OCCN3CCCC3)ccn2)nc2c1CCC2` [Compound 429, 2-[methyl(2-{4-[2-(pyrrolidin-1-yl)ethoxy]pyridin-2-yl}-5H,6H,7H-cyclopenta[d]pyrimidin-4-yl)amino]-N-(propan-2-yl)acetamide] stands 8. Under `CC(C)NC(=O)CN(C)c1nc(-c2cc(OCCN3CCOCC3)ccn2)nc2c1CCC2` [Compound 430, 2-[methyl(2-{4-[2-(morpholin-4-yl)ethoxy]pyridin-2-yl}-5H,6H,7H-cyclopenta[d]pyrimidin-4-yl)amino]-N-(propan-2-yl)acetamide] stands 8. In the case of `CC(C)NC(=O)CN(C)c1nc(-c2cc(OCC3(O)CC3)ccn2)nc2c1CCC2` [Compound 431, 2-[(2-{4-[(1-hydroxycyclopropyl)methoxy]pyridin-2-yl}-5H,6H,7H-cyclopenta[d]pyrimidin-4-yl)(methyl)amino]-N-(propan-2-yl)acetamide], the pEC50 is 7.4. As to `CC(C)NC(=O)CN(C)c1nc(-c2cc(OCCN3CCN(C)CC3)ccn2)nc2c1CCC2` [Compound 432, 2-[methyl(2-{4-[2-(4-methylpiperazin-1-yl)ethoxy]pyridin-2-yl}-5H,6H,7H-cyclopenta[d]pyrimidin-4-yl)amino]-N-(propan-2-yl)acetamide], the pEC50 came to 7.5. Under `CC(C)NC(=O)[C@@H](C)N(C)c1nc(-c2cc(OCCN(C)C)ccn2)nc2c1CCC2` [Compound 433, (2R)-2-[(2-{4-[2-(dimethylamino)ethoxy]pyridin-2-yl}-5H,6H,7H-cyclopenta[d]pyrimidin-4-yl)(methyl)amino]-N-(propan-2-yl)propanamide] stands 8.0; under `CC(C)NC(=O)[C@H](C)N(C)c1nc(-c2cc(OCCN(C)C)ccn2)nc2c1CCC2` [Compound 434, (2S)-2-[(2-{4-[2-(dimethylamino)ethoxy]pyridin-2-yl}-5H,6H,7H-cyclopenta[d]pyrimidin-4-yl)(methyl)amino]-N-(propan-2-yl)propanamide], 7.4. Turning to `CC(C)NC(=O)CN(C)c1nc(-c2cc(OCCN(C)C)ccn2)nc2c1C(C)(C)CC2` [Compound 435, 2-[(2-{4-[2-(dimethylamino)ethoxy]pyridin-2-yl}-5,5-dimethyl-5H,6H,7H-cyclopenta[d]pyrimidin-4-yl)(methyl)amino]-N-(propan-2-yl)acetamide], the pEC50 turned out to be 7.8. With `CC(C)NC(=O)CN(C)c1nc(-c2cc(OCCN3CCOCC3=O)ccn2)nc2c1CCC2` [Compound 436, 2-[methyl(2-{4-[2-(3-oxomorpholin-4-yl)ethoxy]pyridin-2-yl}-5H,6H,7H-cyclopenta[d]pyrimidin-4-yl)amino]-N-(propan-2-yl)acetamide], the pEC50 was 7.3. Under `CN1CC[C@@H](Oc2ccnc(-c3nc4c(c(N(C)CC(=O)NC(C)(C)C)n3)CCC4)c2)C1` [Compound 437, N-tert-butyl-2-{methyl[2-(4-{[(3R)-1-methylpyrrolidin-3-yl]oxy}pyridin-2-yl)-5H,6H,7H-cyclopenta[d]pyrimidin-4-yl]amino}acetamide] stands 8.0. `CN1CC[C@H](Oc2ccnc(-c3nc4c(c(N(C)CC(=O)NC(C)(C)C)n3)CCC4)c2)C1` [Compound 438, N-tert-butyl-2-{methyl[2-(4-{[(3S)-1-methylpyrrolidin-3-yl]oxy}pyridin-2-yl)-5H,6H,7H-cyclopenta[d]pyrimidin-4-yl]amino}acetamide] gave a pEC50 of 7.7. Under `CC(C)NC(=O)CN(C)c1nc(-c2cc(OCC(C)(C)O)ccn2)nc2c1C(C)(C)CC2` [Compound 439, 2-({2-[4-(2-hydroxy-2-methylpropoxy)pyridin-2-yl]-5,5-dimethyl-5H,6H,7H-cyclopenta[d]pyrimidin-4-yl}(methyl)amino)-N-(propan-2-yl)acetamide] stands 7.8; under `Cc1cc(OCC(C)(C)O)cc(-c2nc3c(c(N(C)CC(=O)NC(C)(C)C)n2)CCC3)n1` [Compound 440, N-tert-butyl-2-({2-[4-(2-hydroxy-2-methylpropoxy)-6-methylpyridin-2-yl]-5H,6H,7H-cyclopenta[d]pyrimidin-4-yl}(methyl)amino)acetamide], 8.

Compound `CCNC(=O)CN(C)c1nc(-c2cc(OCC3(O)CC3)ccn2)nc2c1CCC2` [Compound 441, N-ethyl-2-[(2-{4-[(1-hydroxycyclopropyl)methoxy]pyridin-2-yl}-5H,6H,7H-cyclopenta[d]pyrimidin-4-yl)(methyl)amino]acetamide] had a pEC50 of 7.5. Under `CCNC(=O)CN(C)c1nc(-c2cc(OCC(O)(CC)CC)ccn2)nc2c1CCC2` [Compound 442, N-ethyl-2-({2-[4-(2-ethyl-2-hydroxybutoxy)pyridin-2-yl]-5H,6H,7H-cyclopenta[d]pyrimidin-4-yl}(methyl)amino)acetamide] stands 8. Under `CCC(O)(CC)COc1ccnc(-c2nc3c(c(N(C)CC(=O)NC)n2)CCC3)c1` [Compound 443, 2-({2-[4-(2-ethyl-2-hydroxybutoxy)pyridin-2-yl]-5H,6H,7H-cyclopenta[d]pyrimidin-4-yl}(methyl)amino)-N-methylacetamide] stands 7.8. Compound `CC(C)NC(=O)CN(C)c1nc(-c2cc(OCC3(O)CCOCC3)ccn2)nc2c1CCC2` [Compound 444, 2-[(2-{4-[(4-hydroxyoxan-4-yl)methoxy]pyridin-2-yl}-5H,6H,7H-cyclopenta[d]pyrimidin-4-yl)(methyl)amino]-N-(propan-2-yl)acetamide] yielded a pEC50 of 7.9. For the compound `CC[C@@](C)(O)COc1ccnc(-c2nc3c(c(N(C)CC(=O)NC(C)(C)C)n2)CCC3)c1` [Compound 445, N-tert-butyl-2-[(2-{4-[(2R)-2-hydroxy-2-methylbutoxy]pyridin-2-yl}-5H,6H,7H-cyclopenta[d]pyrimidin-4-yl)(methyl)amino]acetamide], the pEC50 was determined as 8.3.

A word on the pEC50: it is the negative decadic logarithm of the EC50, by convention in mol/L. A higher pEC50 goes with a low EC50.

Values taken from US11746100B2 (GLOBAL BLOOD THERAPEUTICS, INC., priority 2020, dated 2023).
